This passage reports Ki and IC50 results from ChEMBL document CHEMBL1141120, “Structure-based design and discovery of protein tyrosine phosphatase inhibitors incorporating novel isothiazolidinone heterocyclic phosphotyrosine mimetics” (J Med Chem, 2005).

Some results are limits rather than exact numbers.

Usually Ki stands for a measure of affinity in units of concentration, obtained from inhibition or displacement. A lower Ki goes with a stronger hold on the target. As usually defined, the IC50 is the concentration that inhibits the measured activity by half.

Assay [1] concerns the target T1, Tyrosine-protein phosphatase non-receptor type 1 (Homo sapiens, UniProt P18031).
T1 sequence (P18031 whole entry): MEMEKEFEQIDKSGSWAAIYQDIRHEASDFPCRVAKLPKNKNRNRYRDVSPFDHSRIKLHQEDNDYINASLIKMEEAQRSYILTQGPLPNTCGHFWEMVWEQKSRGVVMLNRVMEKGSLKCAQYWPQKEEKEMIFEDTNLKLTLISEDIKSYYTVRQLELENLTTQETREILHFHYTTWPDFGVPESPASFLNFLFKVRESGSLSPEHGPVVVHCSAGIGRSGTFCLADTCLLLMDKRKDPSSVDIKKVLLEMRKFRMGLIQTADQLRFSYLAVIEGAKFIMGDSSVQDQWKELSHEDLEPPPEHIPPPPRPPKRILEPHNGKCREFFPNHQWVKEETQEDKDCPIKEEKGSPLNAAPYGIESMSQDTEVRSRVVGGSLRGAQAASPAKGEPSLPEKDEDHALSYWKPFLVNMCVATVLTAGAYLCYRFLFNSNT
The experiment in a line: Inhibition constant against protein-tyrosine phosphatase 1B by PNPP enzyme assay.

In assay [2] the target is T1, Tyrosine-protein phosphatase non-receptor type 1. The experiment in a line: Inhibitory concentration against protein-tyrosine phosphatase.
For assay [3], the target named is T2, Tyrosine-protein phosphatase non-receptor type 2 (Homo sapiens, UniProt P17706).
T2 sequence (P17706 whole entry): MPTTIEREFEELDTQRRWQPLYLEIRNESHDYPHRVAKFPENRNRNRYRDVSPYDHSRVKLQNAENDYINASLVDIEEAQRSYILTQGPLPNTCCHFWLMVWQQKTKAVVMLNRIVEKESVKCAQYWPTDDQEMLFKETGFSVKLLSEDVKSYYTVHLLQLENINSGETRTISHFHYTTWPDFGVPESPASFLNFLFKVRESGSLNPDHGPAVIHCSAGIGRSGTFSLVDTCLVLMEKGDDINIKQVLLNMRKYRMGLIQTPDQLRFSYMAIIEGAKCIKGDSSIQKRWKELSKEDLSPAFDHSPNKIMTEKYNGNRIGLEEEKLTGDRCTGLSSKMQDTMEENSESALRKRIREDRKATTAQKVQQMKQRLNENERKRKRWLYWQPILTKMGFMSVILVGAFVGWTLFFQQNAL
The experiment in a line: Inhibitory concentration against T cell protein tyrosine phosphatase.

The compound `CC(=O)N[C@@H](Cc1ccccc1)C(=O)N[C@@H](Cc1ccc([C@@H]2CC(=O)NS2(=O)=O)cc1)C(N)=O` returned an inhibition constant (Ki) in assay [1] of 180 nM. For the same compound, the IC50 in assay [2] is more than 100000 nM; in assay [3], 135 nM.
